In a melting point compilation (Tetko et al.; mined from patent text by program, amines drawn as free bases though some values may be those of a salt) one finds melting point data, which are given here for 88 molecules.

Where only a bound is given, the exact number is not on record here.

The molecule `CNC(=O)N1CC(Oc2ccc(C(N)=O)cc2)C1` showed a melting point of 208 to 210 °C.

Molecule `CCCCCCCCCCCCC(=O)CC` yielded a melting point of 84 to 86 °C.

In the case of `O=C(O)Cc1ccc(N2CC3CCCCC3C2=O)cc1` (stereo not drawn), the melting point was in the range of 157 to 159 °C.

With `COc1cn(-c2ccc(C#CC3CC3)cc2F)nc(-c2ccnn2-c2ccccc2)c1=O`, the melting point is 145 to 146 °C.

Molecule `CCOC(=O)c1ncc(Cl)cc1NC(C)=O` displayed a melting point of 98 to 100 °C.

Take `CN(CCO)C(=O)NC(CS)Cc1ccccc1` (single isomer, unassigned; (+)): the melting point worked out at 86 °C.

The molecule `Cc1cc(-n2ccnc2)c2cccc(OCc3c(Cl)ccc(S(=O)(=O)N4CCC[C@H]4C(N)=O)c3Cl)c2n1` had a melting point of 110 °C.

Regarding `COC(=O)c1c(-c2ccc(Cl)cc2)c2cc(OCc3ccccc3)ccc2c(=O)n1CC(C)C`, the melting point is 166 °C.

In the case of `Fc1ccc(Cn2c(NC3CCN(CCNc4nccs4)CC3)nc3cncnc32)cc1`, the melting point amounted to 165 °C.

In turn, `Cc1ccc(C(=O)c2ccc(OCC(=O)O)c(Cl)c2Cl)cc1` displayed a melting point of 176 to 177 °C.

`CC#Cc1ccc(-c2ccc(-c3ccc(CCCCC)cc3)c(F)c2F)cc1` returned a melting point of 103 °C.

`Cc1ccc(C(=O)c2ccncc2C(=O)O)cc1` returned a melting point of 230 to 231 °C.

Regarding `COc1ccc(-c2ccc(-c3nc(-c4ccc(C(F)(F)F)cc4)oc3C)cc2)cc1`, the melting point lay within 167 to 168 °C.

Turning to `Cc1oc(-c2ccccc2)nc1CCOc1ccc(CCC2SC(=O)NC2=O)cc1` (stereo not drawn), the melting point lay within 151 to 152 °C.

On to `CC1(c2ccc(S(C)(=O)=O)cc2)OC=C(Br)C(=O)C1Oc1ccc(F)cc1F` (stereo not drawn), for which the melting point came to 230 °C.

For the molecule `O=C1c2ccccc2C(=O)N1CC(=O)N1c2ccccc2N(Cc2ccc(NCc3ccccc3)cc2)C(=O)[C@H]2CCC[C@H]21` (relative stereo), the melting point lay in the range of 178 to 182 °C.

Consider `Cc1cncn1CC(=O)CCc1ccc(Cl)cc1`, for which the melting point was in the range of 227 to 228 °C.

For `Cc1c(CO)c2cnnc(OCc3ccc(F)cc3)c2n1Cc1ccccc1`, the melting point lay within 122 to 124 °C.

In turn, `COC(=O)Oc1sc(-c2ccc(F)cc2)nc(=O)c1-c1c(C)cc(C)cc1C` came in with a melting point of 129 to 131 °C.

`Cc1nc(N=Nc2ccccc2)c(O)c(=O)[nH]1` yielded a melting point of 243 to 245 °C.

With `CC(C)(O)[C@H](Cc1ccccc1)NC(=O)C(Cl)(Cl)Cl`, the melting point is 88 °C.

Turning to `O=CNCC1Cc2ccccc2Cc2ccccc21` (stereo not drawn), the melting point lay in the range of 109 to 111 °C.

As for `CC(C)[C@H](NC1CCCCC1)C(=O)O`, the melting point was more than 300 °C.

In turn, `CCCCN(Cc1ccc(-c2ccccc2-c2nc(=O)o[nH]2)cc1)c1ncccc1C(=O)OCC` gave a melting point of 146 to 147 °C.

For `N#CNc1ccc2c3c(cccc13)CC2`, the melting point lay within 163 to 165 °C.

In the case of `CCOC(=O)C1COc2cc(C)c(C)cc2O1` (stereo not drawn), the melting point was in the range of 70 to 71 °C.

Molecule `CCCCCC(=O)n1c(=O)n(CCCC)c(=O)n1C(=O)CCCCC` registered a melting point of 88 to 89 °C.

Molecule `CCCCCc1ccc(-c2ccc(C(C)O)cc2)cc1` (single isomer, unassigned; (-)) came in with a melting point of 83.8 °C.

On to `CC(CN1CCC(c2noc3cc(F)ccc23)CC1)N1Cc2ccccc2C1` (stereo not drawn), for which the melting point lay within 164 to 165 °C.

Take `CCCCCCNc1ccc(Oc2ccc3nc(COc4ccc(CC5SC(=O)NC5=O)cc4)n(C)c3c2)cc1` (stereo not drawn): the melting point lay in the range of 177 to 179 °C.

The molecule `COc1cc(OC)nc(N2CCN(Cc3ccc(C(C)(C)NC(C)=O)cc3)CC2)n1` came in with a melting point of 199 to 202 °C.

`O=[N+]([O-])c1ccc2nc(N3CCNCC3)ccc2c1` registered a melting point of 153 °C.

In the case of `CC(=O)CC(=O)c1cccc2[nH]ccc12`, the melting point was in the range of 104 to 105 °C.

In the case of `CCNC(=O)CCCC1CCN(Cc2cnc3cc(NC(=O)c4ccc(-c5ccc(F)cc5)cc4)ccc3c2)CC1`, the melting point was in the range of 209 to 213 °C.

Take `Cc1cc2[nH]c(=O)c3cnccc3n2n1`: the melting point is more than 300 °C.

Molecule `CC(=O)ONC(=N)c1ccc(-c2nc(C)c(C(=O)NC(C)C(O)(Cn3cncn3)c3ccc(F)cc3F)s2)cc1` (stereo not drawn) showed a melting point of 146 to 147 °C.

`COc1ccc2c(c1)OCC(NNc1ncnc3c1ncn3C1OC(CO)C(O)C1O)C2` (stereo not drawn): the melting point was 205 to 207 °C.

Molecule `Cc1cccc(C#N)c1[N+](=O)[O-]` registered a melting point of 74.5 to 77 °C.

The molecule `COC(=O)c1cscc1NC(=O)COc1ccc(-c2ccccc2Cl)cn1` returned a melting point of 151 to 155 °C.

For the molecule `COC(=O)c1ccccc1-n1c(CCl)nc2c(C)cccc2c1=O`, the melting point lay in the range of 168 to 169 °C.

For `CCc1cc(C#N)c(=O)[nH]c1C`, the melting point was in the range of 237 to 240 °C.

For `CC(C)(C)N1CCN(Cc2ccc([N+](=O)[O-])cc2)S1(=O)=O`, the melting point was 113 °C.

`COc1ccc(S(=O)(=O)C2(C(=O)O)CCN(C(C)(C)C)CC2)cc1` displayed a melting point of 204 °C.

With `O=c1nc2ccccc2c2cc(CO)[nH]n12`, the melting point was 225 to 230 °C.

On to `CC(C)CC1CCCCc2c1oc(=O)c(C(c1ccccc1)C1CC1)c2O` (stereo not drawn), for which the melting point is 164 to 167 °C.

`COc1cc(C=CCN(C)CCc2ccc(N=C(N)c3cccs3)cc2)cc(OC)c1O`: the melting point lay in the range of 153 to 154 °C.

The molecule `C[C@H](c1ccccc1)n1c(=O)c2c(N3CCN(C)CC3)cc(Cl)cc2n(Cc2ccccc2)c1=O` yielded a melting point of 108 to 115 °C.

`CCOC(=O)C1CCCCC1Nc1cn[nH]c1` (stereo not drawn) yielded a melting point of 92 to 94 °C.

`COC(=O)c1ccccc1C=NC(C)(C(N)=O)C(C)C` (stereo not drawn): the melting point is 79 to 80.5 °C.

The molecule `O=C(O)c1cn2c(n1)COc1ccc(Cl)cc1-2` displayed a melting point of 276 to 278 °C.

Regarding `NS(=O)(=O)c1ccc(-c2cnn(Cc3cc(F)c(F)cc3F)c(=O)c2-c2ccc(F)cc2)cc1`, the melting point was 236 to 238 °C.

Consider `CC(C)(C)OC(=O)NN(C(=O)OC(C)(C)C)C1(c2cccnc2)CCCCC1=O` (stereo not drawn), for which the melting point is 123 to 125 °C.

`CCc1nc2cc(Nc3nccc(-c4ccc(N5CCNCC5)nc4)n3)ccc2o1` registered a melting point of 156 to 159 °C.

For `CC(=NNC(=N)N)c1sc(-c2ccc3ccccc3c2)nc1C`, the melting point was 288 to 290 °C.

As for `COCCc1ccc(OCC(O)CN2CCC(N3CCCNC3=O)CC2)cc1` (stereo not drawn), the melting point is 113 to 115 °C.

Turning to `Nc1nnc(N2CCN(CCOc3ccc(Br)cc3)CC2)[nH]1`, the melting point fell in the range of 166 to 167 °C.

In turn, `CCCC12CCC3c4ccc(OC)cc4CCC3C1CCC2O` (stereo not drawn) displayed a melting point of 141 to 143 °C.

For the molecule `Cc1ccc(NC#N)c(-c2ccccc2)c1`, the melting point is 80 °C.

The molecule `CC(=O)Nc1nc(CCc2ccc(NC(=N)N)cc2)c(Cc2cccc(S(C)(=O)=O)c2)s1` gave a melting point of 212 to 214 °C.

`NS(=O)(=O)c1cccc(-c2cc(-c3nc(-c4ccc(Cl)c(Cl)c4)cc(C(F)(F)F)n3)ccn2)c1` displayed a melting point of 247 °C.

`COc1ccc2cc(-n3c(=O)[nH]c4ccccc43)cc(C)c2n1` registered a melting point of 280 °C.

In turn, `CO[C@@H]1CN(CCCOc2ccc(F)cc2)CC[C@@H]1NC(=O)c1cc(Cl)c(N)cc1O` (relative stereo) returned a melting point of 146 to 148 °C.

The molecule `O=C(O)C(=O)c1ccc(OCCCCCCc2cccc(O)c2O)cc1` showed a melting point of 127 to 130 °C.

`CCCCN1CCSC1S(=O)(=O)N=NC(=O)Nc1nc(OC)cc(OC)n1` (stereo not drawn) returned a melting point of 139 to 140 °C.

`Cc1c[nH]c(Nc2ccc(C3=NNC(=O)CC3C)cc2)nc1=O` (stereo not drawn) had a melting point of 260 to 270 °C.

In turn, `CCOC(=O)CCCOc1cccc2cc(/C(C)=C/C(=O)N3CCOCC3)oc12` yielded a melting point of 90 to 94.8 °C.

`CSc1ccc(-c2nn(CC3CC3)c(=O)cc2-c2ccc(Cl)cc2)cc1` showed a melting point of 142 to 143 °C.

On to `C[C@@H](Nc1nnc(-c2ccccc2)c2ccccc12)C1CCCCC1`, for which the melting point lay within 164 to 167 °C.

Molecule `COc1ccc(-c2ccc(OC)cc2[N+](=O)[O-])c([N+](=O)[O-])c1` came in with a melting point of 134 to 137 °C.

Take `CC(=O)OCC1OC(n2cc(Cc3ccc(Br)cc3)c3c(Cl)cccc32)C(OC(C)=O)C(OC(C)=O)C1OC(C)=O` (stereo not drawn): the melting point lay within 223 to 225 °C.

`CCSc1cccc(OC(F)(F)F)c1S(N)(=O)=O` had a melting point of 146 °C.

The molecule `Cc1cc(Oc2ncc(C(F)(F)F)cc2Cl)n[nH]1` displayed a melting point of 93 to 95 °C.

`CCOC(=O)c1cc2c([nH]c3ccccc32)c(CNc2ccccc2)n1` came in with a melting point of 256 to 258 °C.

Molecule `CC1(C)CCC(C)(C)c2cc(C(=O)c3ccccc3C(=O)N(CCO)CCO)ccc21` came in with a melting point of 116 °C.

With `CCC(=O)NCCC1=CCc2cnc3c(c21)CCO3`, the melting point is 111 to 112 °C.

As for `Cc1nc(N2CCN(Cc3ccc(F)cc3)C2=O)sc1C(=O)N(C)C`, the melting point was in the range of 162 to 164 °C.

Regarding `CNC(=O)c1cnn(-c2ccc(OC)cc2)c1Cl`, the melting point lay within 144 to 146 °C.

The molecule `COc1cccc2c(=O)n(S(=O)(=O)c3ccc(Cl)cc3)c(=O)[nH]c12` had a melting point of 220 to 222 °C.

On to `Cc1ccc(S(=O)(=O)OCP(=O)(OC(C)C)OC(C)C)cc1`, for which the melting point worked out at 37.5 °C.

Take `COC(=O)Oc1ccc(N=C(C#N)c2ccccc2)cc1`: the melting point lay in the range of 145 to 146 °C.

Regarding `COC(=O)c1ccc(NC(=O)N(C)C)cc1`, the melting point was in the range of 169 to 170 °C.

On to `CC(C)n1nc(-c2c(-c3ccccc3)nn3ccc(NC(=O)c4ccccc4)cc23)ccc1=O`, for which the melting point is 266 to 267 °C.

Turning to `Cc1cc(N2CCCCCC2)c2ccc(NCc3ccc(C(F)(F)F)cc3)cc2n1`, the melting point lay in the range of 90 to 93 °C.

For `CCOC(=O)c1cnc2[nH]ncc2c1O`, the melting point came out at 275 °C.

On to `CCNc1c(F)cc2c(=O)c(C(=O)O)cn(-c3cc(N)c(F)cc3F)c2c1Cl`, for which the melting point lay in the range of 252 to 255 °C.

`COC(=O)COc1ccc(SCc2cc(-c3ccc(Cl)cc3)no2)c2c1CCC2`: the melting point lay within 92 to 94 °C.

`Cc1c(C(=O)Nc2ccc(N3CCN(CCOCCO)CC3)c(C#N)c2)cnn1-c1ccc(Cl)cc1` registered a melting point of 196 °C.

`Fc1ccccc1-c1nc(N2CCNCC2)nc2ccccc12` came in with a melting point of 132 to 133 °C.

The melting point is the temperature of the solid-liquid transition.
